Test results taken from patent US8101601B2, “Aminoacyl prodrug derivatives and medicaments for the treatment of thromboembolitic disorders” (Bayer Pharma Aktiengesellschaft, priority 2007, dated 2012).
Structures can show the parent of a compound that is named as a salt.

How the values were obtained:
[1] = In vitro stability in rat plasma (HPLC detection); format: in vitro ADME; conditions: 37° C., read-out: half-life of degradation to liberate compound (A)
Method: 1 mg of substance is dissolved in 1.25 ml of dimethyl sulphoxide. Then 1.25 ml of water are added. 500 μl of this sample solution are mixed with 500 μl of rat plasma at 37° C. and shaken. A first sample (10 μl) is immediately taken for HPLC analysis. In the period up to 2 h after the start of incubation, further aliquots are taken after 2, 5, 10, 30, 60 and 90 min, and the content of the respective test substance and of the active ingredient compound (A) liberated therefrom is determined.
Agilent 1100 with DAD (G1314A), binary pump (G1312A), autosampler (G1329A), column oven (G1316A), thermostat (G1330A); column: Kromasil 100 C18, 250 mm×4.6 mm, 5 μm; column temperature: 30° C.; eluent A: water+5 ml of perchloric acid/liter, eluent B: acetonitrile.

[2] = Determination of the solubility (suspension shaken 24 h at room temperature, HPLC); format: physicochemical; conditions: thermodynamic from solid
Method: […] This suspension is shaken at room temperature for 24 h. After ultracentrifugation at 224 000 g for 30 min, the supernatant is diluted with DMSO and analysed by HPLC. A two-point calibration plot of the test compound in DMSO is used for quantification.
Agilent 1100 with DAD (G1315A), quat. pump (G1311A), autosampler CTC HTS PAL, degasser (G1322A) and column thermostat (G1316A); column: Zorbax Extend-C18 3.5μ; temperature: 40° C.; eluent A: water+5 ml of perchloric acid/liter, eluent B: acetonitrile; flow rate: 0.7 ml/min; gradient: 0-0.5 min 98% A, 2% B; ramp 0.5-4.5 min 10% A, 90% B; 4.5-6 min 10% A, 90% B; ramp 6.5-6.7 min 98% A, 2% B; 6.7-7.5 min 98% A, 2% B.

[3] = In vitro stability in rat plasma (LC/MS-MS detection); format: in vitro ADME, Wistar rats; conditions: Wistar rat plasma, 37° C.
Method: A defined plasma volume (e.g. 2.0 ml) is warmed to 37° C. in a closed test tube in a waterbath. After the intended temperature is reached, a defined amount of the test substance is added as solution (volume of the solvent not more than 2% of the plasma volume). The plasma is shaken and a first sample (50-100 μl) is immediately taken. Then 4-6 further aliquots are taken in the period up for 2 h after the start of incubation.
Acetonitrile is added to the plasma samples to precipitate proteins. After centrifugation, the test substance and, where appropriate, known cleavage products of the test substance in the supernatant are determined quantitatively with a suitable LC/MS-MS method.
The concentrations c of the compound of Example 6 and of the active ingredient compound (A) liberated therefrom determined at various times in the plasma of Wistar rats are shown in Table 3:
The concentrations c of the compound of Example 13 and of the active ingredient compound (A) liberated therefrom determined at various times in the plasma of Wistar rats are shown in Table 4: […]

[4] = Stability in buffer at various pH values (HPLC, 37° C., 24 h); format: physicochemical
Method: 0.3 mg of the test substance is weighed into a 2 ml HPLC vial and 0.5 ml of acetonitrile is added. The substance is dissolved by putting the sample vessel in an ultrasonic bath for about 10 seconds. Then 0.5 ml of the respective buffer solution is added, and the sample is again treated in the ultrasonic bath.
• pH 4.0:1 liter of Millipore water is adjusted to pH 4.0 with 1 N hydrochloric acid; • pH 7.4: 90 g of sodium chloride, 13.61 g of potassium dihydrogen phosphate and 83.35 g of 1 M sodium hydroxide solution are made up to 1 liter with Millipore water and then diluted 1:10.
5 μl portions of the test solution are analysed by HPLC for their content of unchanged test substance every hour over a period of 24 hours at 37° C. The percentage areas of the appropriate peaks are used for quantification.
Agilent 1100 with DAD (G1314A), binary pump (G1312A), autosampler (G1329A), column oven (G1316A), thermostat (G1330A); column: Kromasil 100 C18, 125 mm×4.6 mm, 5 μm; column temperature: 30° C.; eluent A: water+5 ml of perchloric acid/liter, eluent B: acetonitrile.
The ratios of the peak areas (F) at the respective time points in relation to the peak areas at the starting time are shown in Table 2 for representative exemplary embodiments: […]

[5] = 5% dextrose adjusted to pH 4 with hydrochloric acid, pH 4, saline or isotonic
[6] = buffer pH 4, 37° C., hydrochloride
[7] = dilute hydrochloric acid (pH 4), pH 4, aqueous buffer, room temperature, 24 h
[8] = buffer pH 4, 37° C., hydrobromide

half-life at 0.2 mg/ml [1] | solubility at 24 h [2, 5] | % test substance after 4 h [F(t = 4 h) × 100/F(t = 0 h)] ([4]; buffer pH 4, 37° C.) | % Test substance after 24 h [F(t = 24 h) × 100/F(t = 0 h)] ([4]; buffer pH 4, 37° C.) | % test substance after 4 h [F(t = 4 h) × 100/F(t = 0 h)] ([4]; buffer pH 7.4, 37° C.) | % Test substance after 24 h [F(t = 24 h) × 100/F(t = 0 h)] ([4]; buffer pH 7.4, 37° C.) | solubility at 24 h [2, 7] | SMILES | also measured
< 2 min | 2700 µg/mL |  |  |  |  |  | CNCCCC(=O)N(C[C@H]1CN(c2ccc(N3CCOCC3=O)cc2)C(=O)O1)C(=O)c1ccc(Cl)s1 [Example 13, 5-Chloro-N-[4-(methylamino)butanoyl]-N-({(5S)-2-oxo-3-[4-(3-oxomorpholin-4-yl)phenyl]-1,3-oxazolidin-5-yl}methyl)thiophene-2-carboxamide hydrochloride] | c of test substance ([3]; incubation time 0 h): 0.5 mg/L; % test substance after 4 h [F(t = 4 h) × 100/F(t = 0 h)] [4, 6]: 99%; % Test substance after 24 h [F(t = 24 h) × 100/F(t = 0 h)] [4, 6]: 91%
< 2 min | > 3000 µg/mL | 98% | 90% | 0% | 0% |  | NCCCCC(=O)N(C[C@H]1CN(c2ccc(N3CCOCC3=O)cc2)C(=O)O1)C(=O)c1ccc(Cl)s1 [Example 20, N-(5-Aminopentanoyl)-5-chloro-N-({(5S)-2-oxo-3-[4-(3-oxomorpholin-4-yl)phenyl]-1,3-oxazolidin-5-yl}methyl)thiophene-2-carboxamide hydrochloride] | 
 |  | 100% | 98% | 90% | 59% | 860 µg/mL | CC(C)[C@@H](N)C(=O)OCC(=O)N(C[C@H]1CN(c2ccc(N3CCOCC3=O)cc2)C(=O)O1)C(=O)c1ccc(Cl)s1 [Example 6, 2-[[(5-Chloro-2-thienyl)carbonyl]({(5S)-2-oxo-3-[4-(3-oxomorpholin-4-yl)phenyl]-1,3-oxazolidin-5-yl}methyl)amino]-2-oxoethyl D-valinate hydrochloride] | c of test substance ([3]; incubation time 0 h): 0.403 mg/L; c of test substance ([3]; incubation time 0.08 h): 0.0756 mg/L; c of test substance ([3]; incubation time 0.17 h): 0.0079 mg/L
< 2 min |  |  |  |  |  |  | NCCOCC(=O)N(C[C@H]1CN(c2ccc(N3CCOCC3=O)cc2)C(=O)O1)C(=O)c1ccc(Cl)s1 [Example 23, N-[(2-Aminoethoxy)acetyl]-5-chloro-N-({(5S)-2-oxo-3-[4-(3-oxomorpholin-4-yl)phenyl]-1,3-oxazolidin-5-yl}methyl)thiophene-2-carboxamide hydrochloride] | 
< 2 min |  |  |  |  |  |  | CNCCCCC(=O)N(C[C@H]1CN(c2ccc(N3CCOCC3=O)cc2)C(=O)O1)C(=O)c1ccc(Cl)s1 [Example 17, 5-Chloro-N-[5-(methylamino)pentanoyl]-N-({(5S)-2-oxo-3-[4-(3-oxomorpholin-4-yl)phenyl]-1,3-oxazolidin-5-yl}methyl)thiophene-2-carboxamide hydrochloride] | % test substance after 4 h [F(t = 4 h) × 100/F(t = 0 h)] [4, 6]: 83%; % Test substance after 24 h [F(t = 24 h) × 100/F(t = 0 h)] [4, 6]: 55%
< 2 min | > 3000 µg/mL | 100% | 98% |  |  |  | CCCCNCCCC(=O)N(C[C@H]1CN(c2ccc(N3CCOCC3=O)cc2)C(=O)O1)C(=O)c1ccc(Cl)s1 [Example 22, N-[4-(Butylamino)butanoyl]-5-chloro-N-({(5S)-2-oxo-3-[4-(3-oxomorpholin-4-yl)phenyl]-1,3-oxazolidin-5-yl}methyl)thiophene-2-carboxamide hydrochloride] | 
 |  |  |  | 0% | 0% | 350 µg/mL | CNCCCC(=O)N(C[C@H]1CN(c2ccc(N3CCOCC3=O)cc2)C(=O)O1)C(=O)c1ccc(Cl)s1 [Example 12, 5-Chloro-N-[4-(methylamino)butanoyl]-N-({(5S)-2-oxo-3-[4-(3-oxomorpholin-4-yl)phenyl]-1,3-oxazolidin-5-yl}methyl)thiophene-2-carboxamide hydrobromide] | % test substance after 4 h [F(t = 4 h) × 100/F(t = 0 h)] [4, 8]: 100%; % Test substance after 24 h [F(t = 24 h) × 100/F(t = 0 h)] [4, 8]: 98%
 |  | 100% | 99% | 88% | 48% | 340 µg/mL | CC(C)[C@H](N)C(=O)OCC(=O)N(C[C@H]1CN(c2ccc(N3CCOCC3=O)cc2)C(=O)O1)C(=O)c1ccc(Cl)s1 [Example 3, 2-[[(5-Chloro-2-thienyl)carbonyl]({(5S)-2-oxo-3-[4-(3-oxomorpholin-4-yl)phenyl]-1,3-oxazolidin-5-yl}methyl)amino]-2-oxoethyl L-valinate hydrochloride] | 
